For this series the following is noted: Liquid.

Numbers after ± are expanded uncertainties.

Regarding `CCO` [ethanol], the Normal boiling temperature (othmer still) was determined as 78.30 ± 1.6 °C.

Turning to `O` [water], under “Othmer still”, the Normal boiling temperature amounted to 100.00 ± 1.6 °C.

The values above are taken from the NIST ThermoML archive (doi:10.1016/j.fluid.2017.03.010).
